Assay results as given in US6958343B2, “Thiazolopyrimidines and their use as modulators of chemokine receptor activity” (AstraZeneca, AB, priority 2000, dated 2005).

melting point	SMILES
183 to 185 °C	C[C@H](CO)Nc1nc(SCc2ccno2)nc2nc(N)sc12 [Example 9, (2R)-2-[[2-Amino-5-[(5-isoxazolylmethyl)thio]thiazolo[4,5-d]pyrimidin-7-yl]amino]-1-propanol]
158 to 160 °C	Cc1nc(CSc2nc(NC(CO)CO)c3sc(N)nc3n2)cs1 [Example 10, 2-[[2-Amino-5-[[(2-methyl-4-thiazolyl)methyl]thio]thiazolo[4,5-d]pyrimidin-7-yl]amino]-1,3-propanediol]
250 to 252 °C	Cc1nc(CSc2nc(NC(C)(C)CO)c3sc(N)nc3n2)cs1 [Example 11, 2-[[2-Amino-5-[[(2-methyl-4-thiazolyl)methyl]thio]thiazolo[4,5-d]pyrimidin-7-yl]amino]-2-methyl-1-propanol]
